Data taken from patent US11278522B2, “Use of methadone metabolites for treatment of anxiety and depression” (Georgetown University, priority 2015, dated 2022).

Tests used:
[1] = Home cage locomotor activity (mice); assay type: in vivo, mouse; details: mice, 0.5, 1, 5, 10 mg/kg i.p., 60 min
Method: Locomotor Activity (Mice) Locomotor activity in response to i.p. drug administration was analyzed in a “home cage” activity monitoring system (Med Associates, St. Albans, Vt.), as previously described (Walters and Blendy, 2001; Mackler et al., 2008; Isiegas et al., 2009). Briefly, a novel cage identical to the home cage (28.9 cm×17.8 cm 12 cm) was placed in a photo-beam frame (30 cm×24 cm×8 cm) with sensors arranged in an 8-beam array strip. For dose studies, mice were injected i.p. with saline or drug. Immediately following drug administration, the mice were placed individually in the cages. Beam break data was monitored and recorded for 60 min.

[2] = Elevated plus maze (rats); assay type: in vivo, rat
Method: Elevated Plus Maze (Rats) Plus maze testing was performed and scored as previously described (Forcelli and Heinrichs, 2008; Forcelli et al., 2012), in a standard grey rat elevated plus maze (50 cm arms, elevated 40 cm off the ground [Stoelting Co., Wood Dale, Ill.]). Testing was conducted under 20 lux red light, 30 min after drug administration. The number of arm entries and time spent in open and closed arms were recorded using ANYmaze (Stoelting Co, Wood Dale, Ill.).

Marble burying (mice) = assay type: in vivo, mouse; details: 15 min test, vehicle mean 11 of 20
Method: Marble Burying (Mice) After a 1 h period of acclimation to the testing room, the mice (n=6-10 per group) were injected i.p. with saline, EDDP, EMDP, or CDP at the doses indicated. Ten minutes later, the mice were placed individually in small cages (26×20×14 cm), in which twenty marbles had been equally distributed on top of mouse bedding (5-cm deep), and a wire lid was placed on top of the cage. Mice were left undisturbed for 15 min, after which time the number of buried marbles (i.e., those covered by bedding three-quarters or more) was counted.

[3] = Eyelid ptosis assessment (rats); assay type: in vivo, rat
Method: Ptosis was assessed as previously described (Rubin et al., 1957). Each animal was photographed while gently restrained by hand. Photographs were analyzed by a treatment blind observer (P.A.F.) and assigned a score of 0 (no ptosis, eye completely open), 1 (mild, eye partially closed), 2 (moderate, eye half closed), 3 (severe, eye […] closed), or 4 (complete, eye completely closed).

rat α3β4 nAChR channels = rat α3β4 nAChR channels (Rattus norvegicus, UniProt P04757+P12392); details: 2001, cited from earlier work
Sequence of rat α3β4 nAChR channels (P04757 26-499): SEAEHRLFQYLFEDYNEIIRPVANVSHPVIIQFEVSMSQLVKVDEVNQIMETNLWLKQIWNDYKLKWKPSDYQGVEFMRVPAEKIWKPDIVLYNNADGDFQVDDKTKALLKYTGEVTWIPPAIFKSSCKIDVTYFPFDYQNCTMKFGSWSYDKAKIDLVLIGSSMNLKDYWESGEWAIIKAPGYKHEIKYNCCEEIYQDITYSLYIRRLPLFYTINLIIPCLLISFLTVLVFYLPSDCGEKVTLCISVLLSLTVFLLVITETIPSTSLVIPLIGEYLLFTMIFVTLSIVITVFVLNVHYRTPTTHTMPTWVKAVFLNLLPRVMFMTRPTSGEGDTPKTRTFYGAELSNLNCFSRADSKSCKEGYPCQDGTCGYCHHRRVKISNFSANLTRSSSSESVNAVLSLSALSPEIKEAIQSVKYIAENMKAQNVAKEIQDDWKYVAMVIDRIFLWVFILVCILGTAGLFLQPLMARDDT
Sequence of rat α3β4 nAChR channels (P12392 21-495): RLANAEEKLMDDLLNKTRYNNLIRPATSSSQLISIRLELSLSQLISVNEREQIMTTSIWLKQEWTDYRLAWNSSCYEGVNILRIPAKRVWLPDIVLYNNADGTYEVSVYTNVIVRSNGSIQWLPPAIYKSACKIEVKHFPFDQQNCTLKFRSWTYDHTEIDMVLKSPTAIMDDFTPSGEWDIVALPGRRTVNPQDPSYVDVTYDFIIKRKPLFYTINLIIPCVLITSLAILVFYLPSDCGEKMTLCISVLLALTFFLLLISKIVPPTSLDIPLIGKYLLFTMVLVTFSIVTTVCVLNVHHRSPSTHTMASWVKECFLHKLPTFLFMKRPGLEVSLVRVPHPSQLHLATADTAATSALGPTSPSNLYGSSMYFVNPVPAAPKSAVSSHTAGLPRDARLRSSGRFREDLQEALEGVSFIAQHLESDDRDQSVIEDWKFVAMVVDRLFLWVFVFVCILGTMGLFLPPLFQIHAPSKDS

Forced swim test (mice) = assay type: in vivo, mouse; details: 6 min test
Method: Forced Swim Test (FST; Mice) The FST in mice was conducted as previously described [11]. Briefly, 10 min following i.p. injection of saline, EDDP or EMDP, mice were placed in Plexiglas cylinders filled with water (25° C.) for 6 min while being videotaped. The forced swim score for the entire 6 min test was assessed using the Cleversystems videotracking system (CleverSys) and confirmed with visual scoring by a trained observer. A mouse was judged to be immobile when making only those movements necessary to keep its head above water.

human α3β4 nAChRs = target: T1, human α3β4 nAChRs (Homo sapiens, UniProt P30926+P32297); assay: 86Rb+ efflux assay, inhibition of nicotine-stimulated efflux, α3β4 nAChRs; assay type: cell-based
T1 construct: expressed in transfected cells
T1 sequence (P32297 32-505): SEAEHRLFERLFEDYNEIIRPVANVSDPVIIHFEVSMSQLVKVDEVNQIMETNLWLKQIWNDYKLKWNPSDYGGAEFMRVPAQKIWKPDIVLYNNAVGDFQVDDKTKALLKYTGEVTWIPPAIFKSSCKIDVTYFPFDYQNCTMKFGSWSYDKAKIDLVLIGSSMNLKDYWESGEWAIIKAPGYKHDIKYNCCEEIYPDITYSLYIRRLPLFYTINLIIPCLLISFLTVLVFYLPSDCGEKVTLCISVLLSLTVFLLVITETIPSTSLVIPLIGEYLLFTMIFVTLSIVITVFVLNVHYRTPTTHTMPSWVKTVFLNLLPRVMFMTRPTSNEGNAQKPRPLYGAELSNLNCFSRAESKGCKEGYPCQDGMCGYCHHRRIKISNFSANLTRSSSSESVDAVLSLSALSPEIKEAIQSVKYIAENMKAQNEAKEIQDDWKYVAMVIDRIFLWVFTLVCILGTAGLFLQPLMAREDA
T1 sequence (P30926 22-498): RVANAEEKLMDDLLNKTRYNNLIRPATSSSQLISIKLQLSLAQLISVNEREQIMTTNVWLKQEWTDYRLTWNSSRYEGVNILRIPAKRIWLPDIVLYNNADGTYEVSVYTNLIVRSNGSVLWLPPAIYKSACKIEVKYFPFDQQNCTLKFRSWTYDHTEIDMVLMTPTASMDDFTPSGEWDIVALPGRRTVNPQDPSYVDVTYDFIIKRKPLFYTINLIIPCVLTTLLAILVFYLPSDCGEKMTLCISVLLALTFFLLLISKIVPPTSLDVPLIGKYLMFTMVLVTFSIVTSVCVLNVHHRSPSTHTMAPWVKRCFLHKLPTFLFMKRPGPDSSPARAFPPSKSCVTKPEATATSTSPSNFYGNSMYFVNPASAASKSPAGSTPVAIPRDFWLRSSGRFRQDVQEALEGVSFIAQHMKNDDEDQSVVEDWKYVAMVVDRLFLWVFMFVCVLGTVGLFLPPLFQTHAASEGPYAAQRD
Method: Stable cell lines and ^86Rb^+ efflux Assay. […] These cell lines were maintained in minimum essential medium (MEM) supplemented with 10% fetal bovine serum, 100 units/mL penicillin G, […] and selective antibiotics at 37° C. with 5% CO2 in a humidified incubator. Tissue culture medium and antibiotics were obtained from Invitrogen Corporation (Carlsbad, Calif.), unless otherwise stated. Fetal bovine serum was obtained from Gemini Bio-Products (Woodland, Calif.).
In brief, cells were plated into 24-well plates coated with poly-D-lysine. […] The cells were then incubated in growth medium (0.5 mL/well) containing ^86Rb^+ (2 μCi/mL) for 4 hour at 37° C. The loading mixture was then aspirated, and the cells were washed four times with 1 mL buffer (15 mM HEPES, 140 mM NaCl, 2 mM KCl, 1 mM MgSO4, 1.8 mM CaCl2), 11 mM Glucose, pH 7.4). One mL of buffer with or without compounds to be tested was then added to each well. After incubation for 2 min, the assay buffer was collected for measurements of ^86Rb^+ released from the cells. Cells were then lysed by adding 1 mL of 100 mM NaOH to each well, and the lysate was collected for determination of the amount of ^86Rb^+ that was in the cells at the end of the efflux assay. Radioactivity of assay samples and lysates was measured by liquid scintillation counting. Total loading (cpm) was calculated as the sum of the assay sample and the lysate of each well, and the amount of ^86Rb^+ efflux was expressed as a percentage of ^86Rb^+ loaded. Stimulated ^86Rb^+ efflux was defined as the difference between efflux in the presence and absence of nicotine. […] IC50 values were determined by nonlinear least-squares regression analyses (GraphPad. San Diego, Calif.).

Forced swim test (rats) = assay type: in vivo, rat; details: three doses, 5 min test, vehicle 81 s
Method: Forced Swim Test (FST; Rats) The FST in rats was conducted as previously described (Porsolt et al., 2001). On day 1, rats were placed in a cylindrical chamber (20 cm in diameter, 46 cm deep) filled to a height of 38 cm with room temperature water for 15 min. After the completion of this pre-exposure test, animals were removed from the apparatus, dried with towels and placed under a heat lamp for ˜30 min. […] Animals were treated with these same doses again 20 h and 23 h after the initial dose. Twenty-four h after the pre-exposure, animals were re-introduced to the apparatus and video-recorded for 5 min. Immobility was hand-scored for each video record by a treatment blind observer (P.A.F.) using ANYmaze (Stoelting) to record the data.

opiate receptors = assay: [3H]-naloxone binding competition in rat forebrain membranes
[4] = Open field locomotor activity (rats); assay type: in vivo, rat; details: 5 mg/kg s.c., 30 min after injection
Method: Locomotor Activity (Rats) Locomotor activity was measured 30 minutes after sc injection of test compound. Animals were placed in a Plexiglass enclosure (16″×16″×16″, TruScan Arena, Coulbourn Instruments, Whitehall, Pa.) with 770 lux illumination over the center of the arena. Animals were allowed to explore for 20 min, during which total distance traveled was recorded using ANYmaze software (Stoelting Co., Wood Dale, Ill.), as previously described (Forcelli et al., 2012).

CCC1=NC(C)CC1(c1ccccc1)c1ccccc1 (racemic) [EMDP, 2-ethyl-5-methyl-3,3-diphenyl-1-pyrroline]
overall home cage locomotor activity [1]: did not significantly affect | mean duration in the open arms of the elevated plus maze ([2]; s.c., dose not given, 30 min after drug, vehicle 104 s): 143 s | percentage of entries made into the open arms of the plus maze ([2]; vs vehicle): the groups did not differ | latency to first entry in the open arms ([2]; vs vehicle (data not shown)): did not differ as a function of treatment group | number of marbles buried vs vehicle (Marble burying (mice); 5 mg/kg i.p.): buried significantly fewer marbles | number of marbles buried vs vehicle (Marble burying (mice); 10 mg/kg i.p.): buried significantly fewer marbles | eyelid ptosis quantified over 3 h ([3]; 20 mg/kg): ptosis was not apparent at any time | ptosis observed during forced swim tests ([3]; 10 and 20 mg/kg): did not produce ptosis | potency relative to mecamylamine in blocking rat α3β4 nAChRs (rat α3β4 nAChR channels; Xiao et al): one-sixth as potent | block of rat α3β4 nAChR channels (rat α3β4 nAChR channels; Xiao et al.): potently block | duration of immobility in forced swim test vs vehicle (Forced swim test (mice); 5 mg/kg i.p.): did not affect immobility time | duration of immobility in forced swim test vs vehicle (Forced swim test (mice); 10 mg/kg i.p.): significantly reduced | potency relative to mecamylamine in blocking human α3β4 nAChRs (human α3β4 nAChRs): half as potent as mecamylamine | immobile time in forced swim test vs vehicle (Forced swim test (rats); 10 mg/kg s.c.): reduced immobile time | immobile time in forced swim test vs vehicle (Forced swim test (rats); 20 mg/kg s.c.): reduced immobile time | fraction of [3H]-naloxone binding sites competed for (opiate receptors; at a concentration of 100 μM): 60% | apparent affinity, fold lower than that of methadone (opiate receptors; rat forebrain [3H]-naloxone binding): ~1900 fold | Ki (opiate receptors; rat forebrain membranes, 2 nM [3H]-naloxone, single-site model): 21 µM | open field locomotor activity [4]: neither EDDP nor EMDP significantly altered
